The values below are quoted from earlier work in US20120238559A1, “NOVEL COMPOUNDS” (GLAXO GROUP LIMITED, priority 2009, published 2012).

Data set [1] deals with neutrophils.
The next data set concerns Class I PI3-kinases. The settings on record: each of the four Class I PI3-kinases; read-out: IC50 against each of the various Class I PI3-kinases.
The test system of data set [2] is neutrophils. Conditions: treatment of neutrophils; Thelen et al. 1994.

For the compound `O=c1cc(N2CCOCC2)oc2c(-c3ccccc3)cccc12` [LY294002], the “neutrophil migration and superoxide release” value in the data set with neutrophils [1] is “block neutrophil migration and superoxide release”.
In the case of `COC[C@H]1OC(=O)c2coc3c2[C@@]1(C)C1=C(C3=O)[C@@H]2CCC(=O)[C@@]2(C)C[C@H]1OC(C)=O` [wortmannin], the IC50 in the data set with Class I PI3-kinases was 1 to 10 nM. In addition, the “neutrophil migration and superoxide release” value in the data set with neutrophils [1] was “block neutrophil migration and superoxide release”. For the same compound, the “fMLP-induced respiratory burst response” value in the data set on neutrophils [2] is recorded as “prevents the fMLP-induced respiratory burst response”.

One may read the IC50 as the point on the concentration scale where inhibition reaches its midpoint.
